Measurements: patent US10653780B2, “Amino lipids and methods for the delivery of nucleic acids” (ARBUTUS BIOPHARMA CORPORATION, priority 2008, dated 2020)
Values joined by “and” are separate entries in the source; they are usually repeats but may differ in a detail not shown here. Equal entries are not always repeated. Where two headings read alike, the source gives them in different places.

Experiments:
Factor VII (FVII) = conditions: for FVII ED50: Table 11
Excerpt: It is well established that in vivo RNAi silencing of specific hepatocyte proteins can be achieved following intravenous (i.v.) administration of siRNA's encapsulated in, or associated with, select nanoparticles designed for intracellular delivery. […] In this Example, rational design in combination with in vivo screening were applied to systematically modify the structure of DLinDMA and identify molecular features that enhance or reduce cationic lipid potency. More than 30 lipids were synthesized and incorporated into nucleic acid-lipid particles, i.e., lipid nanoparticles (LN) encapsulating an siRNA (LN-siRNA) targeting Factor VII (FVII), a blood clotting component synthesized and secreted by hepatocytes that is readily measured in serum. LN-siRNA systems were prepared using the same process, lipid molar ratios and particle size to minimize effects on activity resulting from formulation characteristics other than the cationic lipid. Each formulation was administered as a single bolus injection over a range of doses enabling an estimate of the siRNA dose required to reduce FVII serum protein concentrations by 50% after 24 h (ED50).
FVII activity was evaluated in FVII siRNA-treated animals at 24 hours after intravenous (bolus) injection in C57BL/6 mice or 48 hours after intravenous (bolus) injection in SD rats. Six to 8 week old, female C57Bl/6 mice were obtained from Charles River Laboratories and acclimated for one week prior to use in studies. Animals were held in a pathogen-free environment and all procedures involving animals were performed in accordance with the guidelines established by the Canadian Council on Animal Care.
LN-siRNA systems containing Factor VII siRNA were diluted to the appropriate concentrations in sterile phosphate buffered saline immediately prior to use, and the formulations were administered intravenously via the lateral tail vein in a total volume of 10 ml/kg. After 24 h, animals were anaesthetised with Ketamine/Xylazine and blood was collected by cardiac puncture and processed to serum (Microtainer Serum Separator Tubes; Becton Dickinson, Franklin Lakes, N.J., USA). Serum was tested immediately or stored at −70° C. for later analysis for serum Factor VII levels.
FVII was measured using a commercially available kit (Biophen FVII Kit™; Aniara Corp., Mason, Ohio), following the manufacturer's instructions at a microplate scale. FVII reduction was determined against untreated control animals, and the results were expressed as % Residual FVII. Five dose levels (0.1, 0.3, 0.5, 1.0, and 3.0 mg/kg) were typically used.
Serum Factor VII levels were determined using the colorimetric Biophen VII assay kit (Anaira, USA). Briefly, serially diluted pooled control serum (200%-3.125%) and appropriately diluted plasma samples from treated animals were analyzed using the Biophen VII kit according to manufacturer's instructions in 96-well, flat bottom, non-binding polystyrene assay plates (Corning, Corning, N.Y.) and absorbance at 405 nm was measured. A calibration curve was generated using the serial diluted control serum and used to determine levels of Factor VII in serum from treated animals.
Initial studies were performed in eight to 10 week old, female C57BL/6 mice in two stages. In the first stage, the activity associated with the benchmark lipid DLinDMA was compared to the activity associated with modified forms of DLinDMA.

[1] = Bilayer-to-hexagonal HII transition temperature (TBH) in equimolar mixtures with DSPS; format: physicochemical; conditions: equimolar with DSPS, pH 4.8; 31P NMR and DSC
Excerpt: Both techniques gave similar results.

[2] = In situ determination of apparent pKa using TNS fluorescence titration
Excerpt: In situ pKa measurements were made using the pH sensitive fluorescent probe TNS, using a modification of the approach previously published in Bailey, A. L. and Cullis, P. R., Biochemistry 33:12573-12580 (1994).
Titrations of surface charge as a function of pH can then be used to determine the apparent pKa (hereafter referred to as pKa) of constituent lipids (Cullis, P. R., et al., Chem Phys Lipids 40:127-144 (1986)).

[3] = Tolerability of DLin-K-DMA-containing LN-siRNA systems in mice at extreme doses
Experimental: The tolerability of empty DLin-K-C2-DMA lipid particles (DLin-K-C2-DMA/DSPC/Chol/PEG-C-DOMG (40/10/40/10)) was evaluated by monitoring weight change, cageside observations, clinical chemistry and, in some instances, hematology in femal Sprague Dawley rats and female C57BL/6 mice. Animal weights were recorded prior to treatment and at 24 hours after intravenous treatment with various dosages. Data was recorded as % Change in Body Weight. In addition to body weight measurements, clinical chemistry panel, including liver function markers, was obtained at each dose level at 24 hours post-injection using an aliquot of the serum collected for FVII analysis. […] In some instances, additional animals were included in the treatment group to allow collection of whole blood for hematology analysis.
The toxicity criteria measured were % change in body weight and serum levels of the liver enzyme markers, ALT and AST.

[4] = Pharmacokinetic and liver analysis of Cy-3 labeled siRNA in LN-siRNA systems; format: in vivo
Excerpt: A fluorescently labeled siRNA (Cy-3 labeled luciferase siRNA, Alnylam Pharmaceuticals) was used to measure the siRNA content in plasma and liver after iv administration of LN-siRNA systems. The measurements were done by first extracting the Cy3-siRNA from the protein-containing biological matrix and then analyzing the amount of Cy-3 label in the extract by fluorescence. Two extraction methods were used, a chloroform/methanol mixture for the plasma samples and a commercial phenol/chloroform mixture (Trizol® reagent) with the tissue samples.
For plasma, blood was collected in EDTA-containing Vacutainer tubes and centrifuged at 1000×g for 10 min at 4-8° C. to isolate the plasma. The plasma was transferred to an eppendorf tube and either assayed immediately or stored in a −30° C. freezer. An aliquot of the plasma (100 μL maximum) was diluted to 500 μL with PBS (145 mM NaCl, 10 mM phosphate, pH 7.5), methanol (1.05 mL and chloroform (0.5 mL) was added, and the sample vortexed to obtain a clear, single phase solution. Water (0.5 mL) and chloroform (0.5 mL) was then added and the resulting emulsion sustained by mixing periodically for a minimum of 3 minutes. The mixture was centrifuged at 3000 rpm for 20 minutes and the top aqueous phase containing the Cy-3-label transferred to a new test tube. The fluorescence of the solution was measured using an SLM Fluorimeter at an excitation wavelength of 550 nm (2 nm bandwidth) and emission wavelength of 600 nm (16 nm bandwidth). A standard curve was generated by spiking aliquots of plasma from untreated animals with the Cy-3-siRNA containing formulation (0 to 15 μg/mL), and the sample processed as indicated above.
For liver, sections (400-500 mg) of tissue from saline-perfused animals was accurately weighed and homogenized in 1 mL of Trizol using Fastprep tubes. An aliquot of the homogenate (typically equivalent to 50 mg of tissue) was transferred to an eppendorf tube and additional Trizol added to 1 mL final. Chloroform (0.2 mL) was added, and the solution was mixed and incubated for 2-3 min before being centrifuged for 15 min at 12,000×g. An aliquot (0.5 mL) of the top Cy-3-containing aqueous phase was diluted with 0.5 mL of PBS and the fluorescence of the sample measured as described above.
The correlation between levels of siRNA delivered to the liver and FVII reduction was determined by encapsulating Cy-3 labeled siRNA in the selection of LN-siRNA systems covering a spectrum of in vivo activities shown in Table 8. Cy-3 fluorescence was measured in plasma and liver tissue 0.5 and 3.0 h post injection.

[5] = Table 4, siRNA dose reducing serum FVII protein by 50% at 24 h, PFV LN-siRNA 40/10/40/10
[6] = Table 6, siRNA dose reducing serum FVII protein by 50% at 24 h, PFV LN-siRNA 40/10/40/10
[7] = Table 8, FVII ED50 of the LN-siRNA system
[8] = siRNA dose reducing serum FVII protein by 50% at 24 h, PFV LN-siRNA 40/10/40/10
[9] = siRNA 0-10 mg/kg, total lipid 0-164 mg/kg
[10] = siRNA 46 mg/kg, total lipid 750 mg/kg
[11] = siRNA 61 mg/kg, total lipid 1000 mg/kg
[12] = siRNA 76 mg/kg, total lipid 1250 mg/kg
[13] = siRNA 92 mg/kg, total lipid 1500 mg/kg

CCCCC/C=C\C/C=C\CCCCCCCCC1(CCCCCCCC/C=C\C/C=C\CCCCC)OCC(CN(C)C)O1 (racemic) [DLin-K-DMA, 2,2-Dilinoleyl-4-dimethylaminomethyl-[1,3]-dioxolane]
ED50 (Factor VII (FVII); [5]): ~0.4 mg/kg | ED50 (Factor VII (FVII); [6]): ~0.4 mg/kg | ED50 (Factor VII (FVII); Table 7, siRNA dose reducing serum FVII protein by 50% at 24 h, PFV LN-siRNA 40/10/40/10): ~1 mg/kg | ED50 (Factor VII (FVII); [7]): 0.3 mg/kg | FVII ED50 (Factor VII (FVII)): ~0.4 mg/kg | FVII ED50 (Factor VII (FVII); listed as DLin-K-DMA (racemic mixture)): ~0.3 mg/kg | fold more potent than the DLinDMA benchmark (Factor VII (FVII); reducing serum FVII protein, mouse, head-to-head): ~2.5 fold | ED50 (Factor VII (FVII); [8]): ~0.4 mg/kg | ED50 (Factor VII (FVII); siRNA dose reducing serum FVII protein by 50% at 24 h, PFV LN-siRNA 40/10/40/10, listed as DLin-K-DMA racemic mixture): ~0.3 mg/kg | HII transition temperature [1]: 19 °C | pKa [2]: 5.6 | siRNA dose up to which no changes in blood chemistry or body weight were observed ([3]; compared to saline controls, mice): 10 mg/kg | body weight lost ([3]; maximum dose 92 mg siRNA/kg, 1500 mg total lipid/kg): 6% | siRNA dose exceeded before severe (>10-fold) ALT/AST increases are observed ([3]; mice): exceeded 61 mg/kg | % Change Body Weight [3, 9]: 0% | ALT [3, 9]: 45 IU/L | AST [3, 9]: 90 IU/L | % Change Body Weight [3, 10]: −5.0% | ALT [3, 10]: 174 IU/L | AST [3, 10]: 340 IU/L | increases in serum ALT and AST [3, 10]: < 10 fold normal | % Change Body Weight [3, 11]: −4.5% | ALT [3, 11]: 448 IU/L | AST [3, 11]: 816 IU/L | % Change Body Weight [3, 12]: −5.5% | ALT [3, 12]: 1771 IU/L | AST [3, 12]: 4723 IU/L | % Change Body Weight [3, 13]: −6.0% | ALT [3, 13]: 4723 IU/L | AST [3, 13]: 2094 IU/L | fold greater than the ED50 dose ([3]; siRNA dose of 10 mg/kg without changes): > 30 fold | fold more than the ED50 ([3]; siRNA dose of 46 mg/kg, first significant toxicity signs): 150 fold

CCCCC/C=C\C/C=C\CCCCCCCCC1(CCCCCCCC/C=C\C/C=C\CCCCC)OCC(CCCCN(C)C)O1 (centres unmarked) [DLin-K-C4-DMA, 2,2-Dilinoleyl-4-(4-dimethylaminobutyl)-[1,3]-dioxolane]
ED50 (Factor VII (FVII); [6]): >3 mg/kg | FVII ED50 (Factor VII (FVII)): >3.0 mg/kg | fold less active in vivo than DLin-K-C3-DMA (Factor VII (FVII); mouse, in vivo): more than 5 fold | ED50 (Factor VII (FVII); [8]): > 3 mg/kg | HII transition temperature [1]: 18 °C | pKa [2]: 6.8

CCCCC/C=C\C/C=C\CCCCCCCCC1(CCCCCCCC/C=C\C/C=C\CCCCC)OCC(CN2CCN(C)CC2)O1 (centres unmarked) [DLin-K-MPZ, 2,2-Dilinoleyl-4-N-methylpepiazino-[1,3]-dioxolane]
ED50 (Factor VII (FVII); [6]): ~1.5 mg/kg | FVII ED50 (Factor VII (FVII)): ~1.5 mg/kg | fold less active than DLin-K-DMA (Factor VII (FVII); mouse FVII model): approximately 5 fold | ED50 (Factor VII (FVII); [8]): ~1.5 mg/kg | pKa [2]: 6.2

1,2-Dilinoleoyl-3-dimethylaminopropane [DLinDAP]
ED50 (Factor VII (FVII); [5]): 40 to 50 mg/kg | ED50 (Factor VII (FVII); [7]): 12 to 25 mg/kg | FVII ED50 (Factor VII (FVII)): >25 mg/kg | ED50 (Factor VII (FVII); [8]): 12 to 25 mg/kg | Liver Cy-3 siRNA ([4]; 0.5 h post injection): 20.5 % injected dose | Plasma Cy-3 siRNA ([4]; 0.5 h post injection): 46.6 % injected dose | Liver Cy-3 siRNA ([4]; 3.0 h post injection): 16.5 % injected dose | Plasma Cy-3 siRNA ([4]; 3.0 h post injection): 3.3 % injected dose | HII transition temperature [1]: 26 °C | Apparent pKa ([2]; in situ in preformed vesicles, TNS fluorescence titration, Table 11): 5.7

CCCCC/C=C\C/C=C\CCCCCCCCC1(CCCCCCCC/C=C\C/C=C\CCCCC)OCC(CCCN(C)C)O1 (centres unmarked) [DLin-K-C3-DMA, 2,2-Dilinoleyl-4-(3-dimethylaminopropyl)-[1,3]-dioxolane]
ED50 (Factor VII (FVII); [6]): ~0.6 mg/kg | FVII ED50 (Factor VII (FVII)): ~0.6 mg/kg | ED50 (Factor VII (FVII); [8]): ~0.6 mg/kg | HII transition temperature [1]: 18 °C | pKa [2]: 6.8

CCCCC/C=C\C/C=C\CCCCCCCCOCC(CN(C)C)OCCCCCCCC/C=C\C/C=C\CCCCC (centres unmarked) [DLinDMA, 1,2-Dilinoleyloxy-3-dimethylaminopropane, reference compound]
ED50 (Factor VII (FVII); Table 3, siRNA dose reducing serum FVII protein by 50% at 24 h, single i.v. bolus, PFV LN-siRNA 40/10/40/10): ~1 mg/kg | ED50 (Factor VII (FVII); [5]): ~1 mg/kg | ED50 (Factor VII (FVII); Table 5, siRNA dose reducing serum FVII protein by 50% at 24 h, PFV LN-siRNA 40/10/40/10): ~1 mg/kg | ED50 (Factor VII (FVII); [7]): 1.0 mg/kg | FVII ED50 (Factor VII (FVII)): ~1.0 mg/kg | ED50 (Factor VII (FVII); [8]): ~1.0 mg/kg and 1 mg/kg | HII transition temperature [1]: 27 °C | pKa [2]: 6.4 | molecules charged ([2]; at pH 7.4): 5-10% | pKa ([2]; nucleic acid-lipid particles containing the cationic lipid): 6.4
